Tested on: NCI-H23 complex spheroids with HUVEC/MSC, viability
Experiment: Anticancer human tumor NCI-H23 cell line growth inhibition [RAS];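 also: spheroids exposed to compound for 7 days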;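 as to viability, T/C: 100% = DMSO vehicle control viability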
Details: for IC50: curve of first compound; for viability, T/C: stronger effect = lower value
Outline: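 Multi-cell-type spheroids: tumor cells plus HUVEC endothelial cells and mesenchymal stem cells. RAS-pathway inhibitors were combined with targeted agents, each dosed in half-log steps down from clinical Cmax, or from 10 microM when Cmax was unknown.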

NC1c2ccccc2OC12CCN(c1cnc3c(N4CCCc5ncccc54)n[nH]c3n1)CC2 (stereo unspecified) + CCn1c(-c2cccnc2C(C)OC)c2c3cc(ccc31)N1CCOC(CC(NC(=O)C(C(C)C)N(C)C(=O)C3(F)CCN(C(=O)C#CC(C)(C)N(C)C)CC3)C(=O)N3CCCC(N3)C(=O)OCC(C)(C)C2)C1
IC50 (second compound 0.000949 µM): < 0.0316 µM | IC50 (second compound 0.003 µM): < 0.0316 µM | IC50 (second compound 0.00949 µM): < 0.0316 µM | IC50 (second compound 0.03 µM): < 0.0316 µM | IC50 (second compound 0.0949 µM): < 0.0316 µM | IC50 (second compound 0.3 µM): < 0.0316 µM | viability, T/C (second compound 0.000949 µM, first compound 0.0316 µM): 19.7% | viability, T/C (second compound 0.000949 µM, first compound 0.1 µM): 16.4% | viability, T/C (second compound 0.000949 µM, first compound 0.316 µM): 10.6% | viability, T/C (second compound 0.000949 µM, first compound 1 µM): 9.5% | viability, T/C (second compound 0.000949 µM, first compound 3.16 µM): 7.93% | viability, T/C (second compound 0.000949 µM, first compound 10 µM): 5.17% | viability, T/C (second compound 0.003 µM, first compound 0.0316 µM): 20.7% | viability, T/C (second compound 0.003 µM, first compound 0.1 µM): 15.8% | viability, T/C (second compound 0.003 µM, first compound 0.316 µM): 11.7% | viability, T/C (second compound 0.003 µM, first compound 1 µM): 8.99% | viability, T/C (second compound 0.003 µM, first compound 3.16 µM): 6.81% | viability, T/C (second compound 0.003 µM, first compound 10 µM): 5.13% | viability, T/C (second compound 0.00949 µM, first compound 0.0316 µM): 18.1% | viability, T/C (second compound 0.00949 µM, first compound 0.1 µM): 15% | viability, T/C (second compound 0.00949 µM, first compound 0.316 µM): 11.4% | viability, T/C (second compound 0.00949 µM, first compound 1 µM): 9.87% | viability, T/C (second compound 0.00949 µM, first compound 3.16 µM): 5.94% | viability, T/C (second compound 0.00949 µM, first compound 10 µM): 5.23% | viability, T/C (second compound 0.03 µM, first compound 0.0316 µM): 17.8% | viability, T/C (second compound 0.03 µM, first compound 0.1 µM): 14.9% | viability, T/C (second compound 0.03 µM, first compound 0.316 µM): 11.8% | viability, T/C (second compound 0.03 µM, first compound 1 µM): 8.83% | viability, T/C (second compound 0.03 µM, first compound 3.16 µM): 5.09% | viability, T/C (second compound 0.03 µM, first compound 10 µM): 5.86% | viability, T/C (second compound 0.0949 µM, first compound 0.0316 µM): 15% | viability, T/C (second compound 0.0949 µM, first compound 0.1 µM): 12.7% | viability, T/C (second compound 0.0949 µM, first compound 0.316 µM): 10.3% | viability, T/C (second compound 0.0949 µM, first compound 1 µM): 7.47% | viability, T/C (second compound 0.0949 µM, first compound 3.16 µM): 5.66% | viability, T/C (second compound 0.0949 µM, first compound 10 µM): 5.23% | viability, T/C (second compound 0.3 µM, first compound 0.0316 µM): 16.5% | viability, T/C (second compound 0.3 µM, first compound 0.1 µM): 11.5% | viability, T/C (second compound 0.3 µM, first compound 0.316 µM): 9.55% | viability, T/C (second compound 0.3 µM, first compound 1 µM): 6.6% | viability, T/C (second compound 0.3 µM, first compound 3.16 µM): 6.48% | viability, T/C (second compound 0.3 µM, first compound 10 µM): 5.71%

CCc1c2c(nc3ccc(O)cc13)-c1cc3c(c(=O)n1C2)COC(=O)[C@]3(O)CC + C#Cc1c(F)ccc2cc(O)cc(-c3ncc4c(N5CC6CCC(C5)N6)nc(OCC56CCCN5CC(F)C6)nc4c3F)c12
IC50 (second compound 0.0316 µM): 0.00566 µM | IC50 (second compound 0.1 µM): 0.00478 µM | IC50 (second compound 0.316 µM): 0.00489 µM | IC50 (second compound 1 µM): 0.00289 µM | IC50 (second compound 3.16 µM): 0.00125 µM | IC50 (second compound 10 µM): < 0.000949 µM | viability, T/C (second compound 0.0316 µM, first compound 0.000949 µM): 74.6% | viability, T/C (second compound 0.0316 µM, first compound 0.003 µM): 75.5% | viability, T/C (second compound 0.0316 µM, first compound 0.00949 µM): 29.9% | viability, T/C (second compound 0.0316 µM, first compound 0.03 µM): 13.3% | viability, T/C (second compound 0.0316 µM, first compound 0.0949 µM): 9.2% | viability, T/C (second compound 0.0316 µM, first compound 0.3 µM): 5.86% | viability, T/C (second compound 0.1 µM, first compound 0.000949 µM): 87.8% | viability, T/C (second compound 0.1 µM, first compound 0.003 µM): 64.6% | viability, T/C (second compound 0.1 µM, first compound 0.00949 µM): 28.2% | viability, T/C (second compound 0.1 µM, first compound 0.03 µM): 14.7% | viability, T/C (second compound 0.1 µM, first compound 0.0949 µM): 9.07% | viability, T/C (second compound 0.1 µM, first compound 0.3 µM): 6.92% | viability, T/C (second compound 0.316 µM, first compound 0.000949 µM): 96.7% | viability, T/C (second compound 0.316 µM, first compound 0.003 µM): 67.8% | viability, T/C (second compound 0.316 µM, first compound 0.00949 µM): 25.4% | viability, T/C (second compound 0.316 µM, first compound 0.03 µM): 12.8% | viability, T/C (second compound 0.316 µM, first compound 0.0949 µM): 9.27% | viability, T/C (second compound 0.316 µM, first compound 0.3 µM): 5.24% | viability, T/C (second compound 1 µM, first compound 0.000949 µM): 86.9% | viability, T/C (second compound 1 µM, first compound 0.003 µM): 49.4% | viability, T/C (second compound 1 µM, first compound 0.00949 µM): 18.9% | viability, T/C (second compound 1 µM, first compound 0.03 µM): 12.2% | viability, T/C (second compound 1 µM, first compound 0.0949 µM): 7.17% | viability, T/C (second compound 1 µM, first compound 0.3 µM): 4.02% | viability, T/C (second compound 3.16 µM, first compound 0.000949 µM): 56.1% | viability, T/C (second compound 3.16 µM, first compound 0.003 µM): 30.8% | viability, T/C (second compound 3.16 µM, first compound 0.00949 µM): 11.7% | viability, T/C (second compound 3.16 µM, first compound 0.03 µM): 5.93% | viability, T/C (second compound 3.16 µM, first compound 0.0949 µM): 3.68% | viability, T/C (second compound 3.16 µM, first compound 0.3 µM): 2.2% | viability, T/C (second compound 10 µM, first compound 0.000949 µM): 31.7% | viability, T/C (second compound 10 µM, first compound 0.003 µM): 20.2% | viability, T/C (second compound 10 µM, first compound 0.00949 µM): 8.85% | viability, T/C (second compound 10 µM, first compound 0.03 µM): 5.36% | viability, T/C (second compound 10 µM, first compound 0.0949 µM): 3.22% | viability, T/C (second compound 10 µM, first compound 0.3 µM): 2.27%

CC(=O)OC12COC1CC(O)C1(C)C(=O)C(O)C3=C(C)C(OC(=O)C(O)C(NC(=O)OC(C)(C)C)c4ccccc4)CC(O)(C(OC(=O)c4ccccc4)C21)C3(C)C (stereo unspecified) + C#Cc1c(F)ccc2cc(O)cc(-c3ncc4c(N5CC6CCC(C5)N6)nc(OCC56CCCN5CC(F)C6)nc4c3F)c12
IC50 (second compound 0.0316 µM): < 0.0316 µM | IC50 (second compound 0.1 µM): < 0.0316 µM | IC50 (second compound 0.316 µM): < 0.0316 µM | IC50 (second compound 1 µM): < 0.0316 µM | IC50 (second compound 3.16 µM): < 0.0316 µM | IC50 (second compound 10 µM): < 0.0316 µM | viability, T/C (second compound 0.0316 µM, first compound 0.0316 µM): 30.7% | viability, T/C (second compound 0.0316 µM, first compound 0.1 µM): 41.2% | viability, T/C (second compound 0.0316 µM, first compound 0.316 µM): 37.2% | viability, T/C (second compound 0.0316 µM, first compound 1 µM): 32.2% | viability, T/C (second compound 0.0316 µM, first compound 3.16 µM): 47.1% | viability, T/C (second compound 0.0316 µM, first compound 10 µM): 62.8% | viability, T/C (second compound 0.1 µM, first compound 0.0316 µM): 27.8% | viability, T/C (second compound 0.1 µM, first compound 0.1 µM): 36.6% | viability, T/C (second compound 0.1 µM, first compound 0.316 µM): 34.6% | viability, T/C (second compound 0.1 µM, first compound 1 µM): 30.9% | viability, T/C (second compound 0.1 µM, first compound 3.16 µM): 56.1% | viability, T/C (second compound 0.1 µM, first compound 10 µM): 71.2% | viability, T/C (second compound 0.316 µM, first compound 0.0316 µM): 34.1% | viability, T/C (second compound 0.316 µM, first compound 0.1 µM): 35.6% | viability, T/C (second compound 0.316 µM, first compound 0.316 µM): 31.3% | viability, T/C (second compound 0.316 µM, first compound 1 µM): 32% | viability, T/C (second compound 0.316 µM, first compound 3.16 µM): 46.1% | viability, T/C (second compound 0.316 µM, first compound 10 µM): 57.2% | viability, T/C (second compound 1 µM, first compound 0.0316 µM): 27.3% | viability, T/C (second compound 1 µM, first compound 0.1 µM): 30.5% | viability, T/C (second compound 1 µM, first compound 0.316 µM): 32% | viability, T/C (second compound 1 µM, first compound 1 µM): 23.6% | viability, T/C (second compound 1 µM, first compound 3.16 µM): 36.4% | viability, T/C (second compound 1 µM, first compound 10 µM): 46.6% | viability, T/C (second compound 3.16 µM, first compound 0.0316 µM): 20.1% | viability, T/C (second compound 3.16 µM, first compound 0.1 µM): 21.6% | viability, T/C (second compound 3.16 µM, first compound 0.316 µM): 21.2% | viability, T/C (second compound 3.16 µM, first compound 1 µM): 23.6% | viability, T/C (second compound 3.16 µM, first compound 3.16 µM): 25.6% | viability, T/C (second compound 3.16 µM, first compound 10 µM): 39% | viability, T/C (second compound 10 µM, first compound 0.0316 µM): 17.9% | viability, T/C (second compound 10 µM, first compound 0.1 µM): 20.7% | viability, T/C (second compound 10 µM, first compound 0.316 µM): 16.5% | viability, T/C (second compound 10 µM, first compound 1 µM): 19.1% | viability, T/C (second compound 10 µM, first compound 3.16 µM): 23.1% | viability, T/C (second compound 10 µM, first compound 10 µM): 30.5%
